Patent US20200352889A1, “CYSTATHIONINE COMPOSITIONS AND METHODS OF TREATMENT FOR HEALTH CONDITIONS” (THE REGENTS OF THE UNIVERSITY OF COLORADO, A BODY CORPORATE, priority 2011, published 2020)
Entries after “also recorded” stand apart in the source; their conditions may differ.

Columns and labels:
[1] = system: C57BL/6 WT mice treated with tunicamycin; assay: Tunicamycin-induced hepatic and renal damage in WT mice in the presence and absence of PPG; type: in vivo, mouse
Excerpt: In order to investigate the effects of elevated cystathionine upon the response to ER stress, wild type mice (n=6) were exposed to a single sub-lethal intraperitoneal injection of tunicamycin in the presence and absence of the CGL inactivating compound PPG. WT mice were randomly assigned to one of four treatment groups (n=6 for each group): 1) control, IP injected with PBS; 2) I.P. injection with PPG; 3) single I.P […] tunicamycin and 4) tunicamycin+PPG. In groups 2 and 4, PPG treatment was maintained by daily injection until sacrifice at three days post vehicle/tunicamycin injection. After the completion of this treatment regime, all mice were anaesthetized (isoflourane/oxygen) and sacrificed by decapitation, and blood samples were collected for plasma analysis. Livers and kidneys were removed, weighed and then samples were either immersion-fixed overnight in 4% paraformaldehyde in PBS (pH 7.3) for subsequent histological analysis or were snap frozen in liquid nitrogen and examined for morphological, histological and biochemical analyses.
Propensity for hepatic steatosis was examined in HO and wild type control mice using a methionine-choline deficient amino acid defined and iron supplemented diet (#518810 Dyets Inc., Bethlehem, Pa.)) and an isocaloric amino acid defined Lombardi choline sufficient diet with methionine control diet (518754, Dyets Inc., Bethlehem, Pa.) for 19 days as described previously (7). Experimental hypercystathionemia was induced by IP injection of the CGL inactivator PPG (50 mg·day-1·kg-1) as described previously (8). ER stress was induced in mice by a single IP injection with tunicamycin at 0.5 mg/kg body weight (volume <=1.0 ml). Control mice were sham treated by injection with an equal volume of PBS (9,10).
Tissues were immersion-fixed overnight in 4% paraformaldehyde in PBS (pH 7.3). Paraffin embedded sections (5 μm) were stained for examination with hematoxylin and eosin (H and E). Cells undergoing apoptosis were identified by labeling their DNA 3′-OH nick ends using a variant of terminal deoxynucleotidyl transferase-mediated dUTP nick end-labeling (TUNEL) staining. Staining was performed according to the manufacturer's instruction with ApopTag® Peroxidase in Situ Apoptosis Detection Kit (Millipore, Billerica, Mass.). Tissue sections were deparaffinized with xylene and washed in succession with different concentrations of ethanol (absolute, 95% and 70%). Tissue sections were then digested with proteinase K (20 μg/ml) for 15 min. Endogenous peroxidase activity was quenched with 3% H2O2 in PBS for 5 min. The slides were immersed in terminal deoxynucleotidyl transferase (TdT) buffer containing digoxigenin-labeled nucleotides at 37° C. for 1 h. After washing, anti-digoxigenin-peroxidase was added to cover the slides and incubated in a humid chamber at room temperature for 30 min. After washing with PBS, the slides were stained with diaminobenzidine and then counterstained with 1% methyl green. Light microscopy was performed to quantify the apoptotic cells, by counting cells in ten randomly selected fields (×100 magnification) of each slide with the following formula: number of apoptotic cells/total number of cells counted×100.
A party unaware of the animal's genotype or treatment group performed both histological analysis, of stained slides and TUNEL staining. Liver injury was assessed by determining plasma levels of alanine aminotransferase (ALT) activity using an enzyme-coupled assay with lactic dehydrogenase (LDH) as described previously (12) Liver lipid was extracted using the procedure of Bligh and Dyer (13) and after evaporation of the organic solvent, the triacylglycerol content of each sample was measured in duplicate using an enzymatic method (Sigma-Aldrich).

Grp78, Grp94, GADD153 = assay: Northern and Western blotting of UPR induction in 293AD cells; type: cell-based, human
Procedure: To further assess the effect of cystathionine upon induction of the UPR and GADD153 by ER stress Northern and Western blotting experiments were performed.
Immunoblot analysis of total cell lysates was performed as described previously (4,14). Briefly, following incubation with the appropriate primary and horseradish peroxidase-conjugated secondary antibodies (Affinity Biologicals, Ancaster, ON, Canada) membranes were developed using the Renaissance® Western Blot Chemiluminescence Reagent Kit, (Perkin Elmer, Woodbridge, ON, Canada). Proteins were transferred on a nitrocellulose membrane, and probed with anti-KDEL monoclonal antibody, which recognizes Hsp70, GRP78 and GRP94 that was purchased from Stressgen Biotechnologies (SPA-827) or anti GADD153 (Santa Cruz Biotech #SC-7351). Anti-β-Actin monoclonal antibody (Sigma) was used as a loading control.
Total RNA was isolated from 293AD cells using the RNeasy® total RNA kit (Qiagen, Santa Clarita, Calif.) and resuspended in diethylpyrocarbonate (DEPC)-treated water. Quantification and purity of the RNA was assessed by A260/A280 absorption, and RNA samples with ratios greater than 1.6 were stored at […] for further analysis. Total RNA (10 μg/lane) was fractionated on 2.2 mol/L formaldehyde/1.2% agarose gels and transferred overnight onto Zeta-Probe® GT nylon membranes (Bio-Rad, Toronto, Canada) in 10×SSC. The RNA was cross-linked to the membrane using a UV crosslinker (PDI Bioscience, Toronto, Canada) before hybridization. Specific probes were generated by labeling cDNA fragments with [−32P]dCTP (NEN) using a random primed DNA labeling kit (Boehringer Mannheim, Laval, Canada). The cDNA probe for GADD153 (no. AA627477) was obtained from Genome Systems (St Louis, Mo.). The cDNA probe used for GRP78 is a full length cDNA clone that has been described previously (4). After overnight hybridization at 43° C., the membranes were washed as described by the manufacturer, exposed to x-ray film, and subjected to autoradiography.

[2] = tunicamycin 0.5 mg/kg single IP + daily PPG, three days

C#CCC(N)C(=O)O (racemic) [PPG, D,L-2-amino-4-pentynoic acid]
apoptosis (Tunel staining) ([1]; PPG alone control group): No apoptosis was observed | morphological alteration (histology) ([1]; PPG alone control group): no significant morphological alteration | size and appearance of livers and kidneys ([1]; PPG alone control group): normal in size and appearance | liver weight vs control groups [1, 2]: did not differ significantly from the control groups | plasma ALT levels vs control groups [1, 2]: did not differ significantly from the control groups | triglyceride levels vs control groups [1, 2]: did not differ significantly from the control groups | gross appearance of livers and kidneys ([1]; tunicamycin + PPG, three days): appeared ostensibly normal; also recorded: this effect was not apparent | tunicamycin-induced morphological changes in liver and kidney (H and E histology) ([1]; tunicamycin + PPG, three days): effectively ablated; also recorded: significantly attenuated | apoptotic cells in kidney (Tunel staining) ([1]; tunicamycin treated mice pretreated with PPG): No apoptotic cells were observed | expression of Grp78, Grp94 and GADD15 in control cells (Grp78, Grp94, GADD153; PPG 5 mM or cystathionine 5 mM, no tunicamycin): Neither PPG nor exogenously added cystathionine induced expression | scale of induction of Grp78, Grp94 and GADD153 in the presence of tunicamycin (Grp78, Grp94, GADD153; tunicamycin 5 and 10 μg/ml): Nor did either of these treatments significantly alter the scale of induction
